# How the values were obtained:
# Assay type in all cases: cell-based, human
# LNCaP cells = experiment: Cell viability (AlamarBlue), LNCaP prostate cancer cells; parameters: key to EC50 (μM) in LNCaP cells: Inactive: less than 50% inhibition at the highest concentration tested at 50 μM; settings: 72 hours of treatment; for EC50: Homo sapiens, LNCaP, 72 h
# Procedure: (§1) In another exemplary method, half maximal effective concentration (EC50) was determined for some compounds and their isomers as disclosed herein in a variety of human cancer cell lines. In brief, cells from two prostate cancer cell lines (LNCaP, 22RV1), one glioblastoma cell line (U87), one breast cancer cell line (MCF7), a glioma cell line (LN18), a normal prostate cell line (RWPE1), and a glioblastoma cell line (T98G) were plated in a multi-well plate. After 24 hours, one of the compounds herein was added to the well at increasing concentrations. After 72 hours of treatment, cell viability was assessed using AlamrBlue® (Invitrogen) and fluorescence was read using the CLARIOstar Plus Multilabel Plate Reader (BMG Labtech). Samples were normalized to no treatment controls. EC50 values were determined using GraphPad Prism.
# 22RV1 cells = experiment: Cell viability (AlamarBlue), 22RV1 prostate cancer cells; parameters: key to EC50 (μM) in 22RV1 cells: Inactive: less than 50% inhibition at the highest concentration tested at 50 μM; settings: 72 hours of treatment; for EC50: Homo sapiens, 22Rv1, 72 h
# Procedure: as §1
# U87 cells = experiment: Cell viability (AlamarBlue), U87 glioblastoma cells; parameters: key to EC50 (μM) in U87 cells: Inactive: less than 50% inhibition at the highest concentration tested at 50 μM; settings: 72 hours of treatment; for EC50: Homo sapiens, U-87 MG, 72 h
# Procedure: as §1
SMILES,EC50 (μM) in LNCaP cells (LNCaP cells),EC50 (μM) in 22RV1 cells (22RV1 cells),EC50 (μM) in U87 cells (U87 cells),EC50 (U87 cells) [µM],other results
"COC1CCC(C(=O)NC(=O)Nc2ccc(Oc3nccn3C)c(C)c2)CC1 (centres unmarked) [Compound 28, 1-(4-methoxycyclohexanecarbonyl)-3-{3-methyl-4-[(1-methyl-1H-imidazol-2-yl)oxy]phenyl}urea]",Inactive,Inactive,Inactive,–,–
"COC1CC(C(=O)NC(=O)Nc2cc(C)c(Oc3ncccn3)c(F)c2)C1 (centres unmarked) [Compound 74, N-((3-fluoro-5-methyl-4-(pyrimidin-2-yloxy)phenyl)carbamoyl)-3-methoxycyclobutane-1-carboxamide]",–,–,–,2.5,EC50 (22RV1 cells): 1.65 µM
"COC1(C(=O)NC(=O)Nc2ccc(Oc3ncc(Cl)cn3)c(C)c2)CC1 [Compound 66, N-((4-((5-chloropyrimidin-2-yl)oxy)-3-methylphenyl)carbamoyl)-1-methoxycyclopropane-1-carboxamide]",Inactive,Inactive,Inactive,–,–
"COC1CCC(C(=O)NC(=O)Nc2ccc(Oc3ccc(C4CC4)cn3)c(C)c2)CC1 (centres unmarked) [Compound 75, N-((4-((5-cyclopropylpyridin-2-yl)oxy)-3-methylphenyl)carbamoyl)-4-methoxycyclohexane-1-carboxamide]",–,–,Inactive,–,–
"COCCOC1CCC(C(=O)NC(=O)Nc2ccc(Oc3ncc(Cl)cn3)c(C)c2)CC1 (centres unmarked) [Compound 50, N-((4-((5-chloropyrimidin-2-yl)oxy)-3-methylphenyl)carbamoyl)-4-(2-methoxyethoxy)cyclohexanecarboxamide]",Inactive,Inactive,Inactive,–,–
"COC1CC1C(=O)NC(=O)Nc1ccc(Oc2ccc(Cl)cn2)c(C)c1 (centres unmarked) [Compound 82, N-((4-((5-chloropyridin-2-yl)oxy)-3-methylphenyl)carbamoyl)-2-methoxycyclopropane-1-carboxamide]",–,–,Inactive,–,–
"COC1CC(C(=O)NC(=O)Nc2cc(C)c(Oc3nccs3)c(F)c2)C1 (centres unmarked) [Compound 77, N-((3-fluoro-5-methyl-4-(thiazol-2-yloxy)phenyl)carbamoyl)-3-methoxycyclobutanecarboxamide]",–,–,–,22,–
"Cc1cc(NC(=O)NC(=O)C2CC(O)C2)ccc1Oc1ccc(Cl)cn1 (centres unmarked) [Compound 80, N-((4-((5-chloropyridin-2-yl)oxy)-3-methylphenyl)carbamoyl)-3-hydroxycyclobutane-1-carboxamide]",–,–,Inactive,–,–
"COC1CC(C(=O)NC(=O)Nc2ccc(Oc3nncs3)c(C)c2)C1 (centres unmarked) [Compound 55, N-((4-((1,3,4-thiadiazol-2-yl)oxy)-3-methylphenyl)carbamoyl)-3-methoxycyclobutanecarboxamide]",Inactive,–,Inactive,–,EC50 (22RV1 cells): 30.6 µM
"Cc1cc(NC(=O)NC(=O)C2CCC(O)CC2)ccc1Oc1ncc(Cl)cn1 (centres unmarked) [Compound 53, N-((4-((5-chloropyrimidin-2-yl)oxy)-3-methylphenyl)carbamoyl)-4-hydroxycyclohexane-1-carboxamide]",Inactive,Inactive,Inactive,–,–
"COC1CCC(C(=O)NC(=O)Nc2ccc(Oc3ncc(C(C)C)cn3)c(C)c2)CC1 (centres unmarked) [Compound 30, 1-(4-methoxycyclohexanecarbonyl)-3-(3-methyl-4-{[5-(propan-2-yl)pyrimidin-2-yl)oxy}phenyl)urea]",–,–,–,12.2,EC50 (LNCaP cells): 8.5 µM; EC50 (22RV1 cells): 14.4 µM
"COC12CC(C(=O)NC(=O)Nc3ccc(Oc4nccs4)c(C)c3)(C1)C2 [Compound 83, 3-methoxy-N-((3-methyl-4-(thiazol-2-yloxy)phenyl)carbamoyl)bicyclo[1.1.1]pentane-1-carboxamide]",–,–,–,0.33,–
"COC1CC(C(=O)NC(=O)Nc2ccc(Oc3ncc(C#N)s3)c(C)c2)C1 (centres unmarked) [Compound 62, N-((4-((5-cyanothiazol-2-yl)oxy)-3-methylphenyl)carbamoyl)-3-methoxycyclobutane-1-carboxamide]",–,–,–,5.4,EC50 (LNCaP cells): 21 µM; EC50 (22RV1 cells): 1 µM
"COC1CC(C)(C(=O)NC(=O)Nc2ccc(Oc3ccc(Cl)cn3)c(C)c2)C1 (centres unmarked) [Compound 79, N-((4-((5-chloropyridin-2-yl)oxy)-3-methylphenyl)carbamoyl)-3-methoxy-1-methylcyclobutane-1-carboxamide]",–,–,Inactive,–,–
"Cc1cc(NC(=O)NC(=O)C2CC(OCC3CC3)C2)ccc1Oc1ccc(Cl)cn1 (centres unmarked) [Compound 40, N-((4-((5-chloropyridin-2-yl)oxy)-3-methylphenyl)carbamoyl)-3-(cyclopropylmethoxy)cyclobutane-1-carboxamide]",Inactive,Inactive,Inactive,–,–
"Cc1cc(NC(=O)NC(=O)C2CCCC2)ccc1Oc1ncc(Cl)cn1 [Compound 3, 1-{4-[(5-chloropyrimidin-2-yl)oxy]-3-methylphenyl}-3-cyclopentanecarbonylurea]",Inactive,Inactive,–,–,–
"Cc1cc(NC(=O)NC(=O)C2CC(OCC3CC3)C2)ccc1Oc1ncc(Cl)cn1 (centres unmarked) [Compound 41, N-((4-((5-chloropyrimidin-2-yl)oxy)-3-methylphenyl)carbamoyl)-3-(cyclopropylmethoxy)cyclobutane-1-carboxamide]",Inactive,–,–,49,EC50 (22RV1 cells): 46 µM
"Cc1cc(NC(=O)NC(=O)C2CCOCC2)ccc1Oc1ncc(Cl)cn1 [Compound 4, 3-{4-[(5-chloropyrimidin-2-yl)oxy]-3-methylphenyl}-1-(oxane-4-carbonyl)urea]",Inactive,Inactive,–,–,–
"COC1(C(=O)NC(=O)Nc2ccc(Oc3ccc(Cl)cn3)c(C)c2)CC1 [Compound 65, N-((4-((5-chloropyridin-2-yl)oxy)-3-methylphenyl)carbamoyl)-1-methoxycyclopropane-1-carboxamide]",–,Inactive,Inactive,–,–
"Cc1cc(NC(=O)NC(=O)C2CCOC2)ccc1Oc1ncc(Cl)cn1 (racemic) [Compound 5, rac-1-{4-[(5-chloropyrimidin-2-yl)oxy]-3-methylphenyl}-3-[(3R)-oxolane-3-carbonyl]urea]",Inactive,Inactive,–,–,–
"COC1CC(C(=O)NC(=O)Nc2cc(C)c(Oc3ccc(F)cn3)c(F)c2)C1 (centres unmarked) [Compound 72, N-((3-fluoro-4-((5-fluoropyridin-2-yl)oxy)-5-methylphenyl)carbamoyl)-3-methoxycyclobutane-1-carboxamide]",–,–,–,1.1,EC50 (22RV1 cells): 0.91 µM
"COC12CC(C(=O)NC(=O)Nc3ccc(Oc4ccc(F)cn4)c(C)c3)(C1)C2 [Compound 89, N-((4-((5-fluoropyridin-2-yl)oxy)-3-methylphenyl)carbamoyl)-3-methoxybicyclo[1.1.1]pentane-1-carboxamide]",–,–,–,0.2,–
"COC1CC1C(=O)NC(=O)Nc1ccc(Oc2ncc(Cl)cn2)c(C)c1 (centres unmarked) [Compound 81, N-((4-((5-chloropyrimidin-2-yl)oxy)-3-methylphenyl)carbamoyl)-2-methoxycyclopropane-1-carboxamide]",–,–,Inactive,–,–

# From patent publication US12404242B2, “Compositions and methods for making and using small molecules in the treatment of cancer” (Reglagene, Inc., priority 2021, dated 2025)
